Laboratory results published in BindingDB's records for doi:10.1002/cbic.201402579 (2015).

Molecular target: Cyclin-dependent kinase 2 (Homo sapiens, UniProt P24941)
Experiment: Protein Kinase Assay
Settings: pH 7.5; 30 °C
Protocol: We incubated human recombinant CDK2/cyclin A with small molecules at the indicatedconcentrations in buffer A (Tris HCl (25 mm, pH 7.5), MgCl2 (10 mm), EGTA (1 mm), DTT (1 mm), heparin ([…])) containing histone H1 (1 mg/mL), […] and [g-33P]ATP (15 mm, 3,000 Cimmol^-1; 10 mCi/mL) in a […]. After 30 min incubation at 30 C , we stopped the reaction by using a MicroBeta FilterMate-96 Harvester and P81 phosphocellulose papers , which we washed in phosphoric acid (1 %). We added scintillation fluid, and we measured the radioactivity in a counter with microplate robotic stackers. We calculated kinase activity as picomoles of phosphate incorporated during the 30 min incubation. We evaluated percentage kinase activity as the amount compared to that measured in the absence of inhibitors.

Compound | Kd [µM]
CC(=O)OCc1cc(O)c2c(c1)C(=O)c1cccc(O)c1C2=O [11-O-acetyl-aloe-emodin] | 17.8
O=C(O)c1cc(O)c2c(c1)C(=O)c1cccc(O)c1C2=O [RHEIN] | 9.6
NNc1ncnc2sc3c(c12)CCC3 [7,8-dihydro-6H-cyclopenta[4,5]thieno[1,2-c]pyrimidin-1-yldiazane] | 287
NNc1ncnc2sc3c(c12)CCCCC3 [4-hydrazino-6,7,8,9-tetrahydro-5H-cyclohepta[4,5]thieno[2,3-d]pyrimidine (A1)] | 32.5
NNc1ncnc2sc3c(c12)CCCC3 [4-hydrazino-5,6,7,8-tetrahydro[1]benzothieno[2,3-d]pyrimidine (A)] | 28.3
